Key:
Assay type in all cases: cell-based
[1] = target: T1, human TLR7 (Homo sapiens, UniProt Q9NYK1); test: TLR7 inhibition reporter assay (HEK-Blue cells, SEAP reporter, gardiquimod stimulation); details: HEK-Blue cells overexpressing human TLR7, SEAP reporter, gardiquimod 7.5 μM; read-out: TLR7 IC50
T1 construct: host or cells: HEK-Blue cells
T1 sequence (Q9NYK1 27-1049): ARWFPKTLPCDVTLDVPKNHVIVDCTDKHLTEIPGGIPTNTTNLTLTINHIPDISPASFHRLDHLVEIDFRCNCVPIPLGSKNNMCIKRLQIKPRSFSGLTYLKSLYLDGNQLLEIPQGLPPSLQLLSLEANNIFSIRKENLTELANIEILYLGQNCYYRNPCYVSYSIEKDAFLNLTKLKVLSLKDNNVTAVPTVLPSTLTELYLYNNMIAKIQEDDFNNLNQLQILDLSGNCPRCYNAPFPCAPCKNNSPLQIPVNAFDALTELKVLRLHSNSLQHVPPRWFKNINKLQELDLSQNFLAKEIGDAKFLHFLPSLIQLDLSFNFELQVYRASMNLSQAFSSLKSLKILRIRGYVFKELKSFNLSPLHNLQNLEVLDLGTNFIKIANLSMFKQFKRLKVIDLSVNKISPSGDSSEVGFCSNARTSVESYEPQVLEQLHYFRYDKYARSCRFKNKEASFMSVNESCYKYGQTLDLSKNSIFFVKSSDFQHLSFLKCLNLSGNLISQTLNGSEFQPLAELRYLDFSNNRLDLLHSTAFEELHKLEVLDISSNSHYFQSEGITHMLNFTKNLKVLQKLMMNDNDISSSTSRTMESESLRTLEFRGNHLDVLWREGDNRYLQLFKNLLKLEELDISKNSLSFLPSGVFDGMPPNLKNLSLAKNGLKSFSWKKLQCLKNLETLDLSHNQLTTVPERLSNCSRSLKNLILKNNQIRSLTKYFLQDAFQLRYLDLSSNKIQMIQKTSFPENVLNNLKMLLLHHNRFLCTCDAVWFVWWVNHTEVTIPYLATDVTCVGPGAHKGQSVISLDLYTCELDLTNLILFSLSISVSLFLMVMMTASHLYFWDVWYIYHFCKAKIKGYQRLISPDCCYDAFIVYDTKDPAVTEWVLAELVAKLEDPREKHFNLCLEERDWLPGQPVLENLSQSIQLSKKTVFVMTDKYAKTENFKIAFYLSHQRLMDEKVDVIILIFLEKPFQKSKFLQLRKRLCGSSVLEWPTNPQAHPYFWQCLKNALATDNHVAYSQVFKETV
Procedure, shortened: (§1)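 HEK-Blue cells overexpressing human TLR7, TLR8 or TLR9 carry a SEAP reporter driven by NF-κB/AP-1 sites. Compounds (0.05 nM–50 μM) were preincubated 30 min at room temperature, then cells were stimulated with gardiquimod 7.5 μM (TLR7), R848 15.9 μM (TLR8) or ODN2006 5 nM (TLR9) for 22 h at 37 °C.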

[2] = target: T2, human TLR8 (Homo sapiens, UniProt Q9NR97); test: TLR8 inhibition reporter assay (HEK-Blue cells, SEAP reporter, R848 stimulation); details: HEK-Blue cells overexpressing human TLR8, SEAP reporter, R848 15.9 μM; read-out: TLR8 IC50
T2 construct: host or cells: HEK-Blue cells
T2 sequence (Q9NR97 27-1041): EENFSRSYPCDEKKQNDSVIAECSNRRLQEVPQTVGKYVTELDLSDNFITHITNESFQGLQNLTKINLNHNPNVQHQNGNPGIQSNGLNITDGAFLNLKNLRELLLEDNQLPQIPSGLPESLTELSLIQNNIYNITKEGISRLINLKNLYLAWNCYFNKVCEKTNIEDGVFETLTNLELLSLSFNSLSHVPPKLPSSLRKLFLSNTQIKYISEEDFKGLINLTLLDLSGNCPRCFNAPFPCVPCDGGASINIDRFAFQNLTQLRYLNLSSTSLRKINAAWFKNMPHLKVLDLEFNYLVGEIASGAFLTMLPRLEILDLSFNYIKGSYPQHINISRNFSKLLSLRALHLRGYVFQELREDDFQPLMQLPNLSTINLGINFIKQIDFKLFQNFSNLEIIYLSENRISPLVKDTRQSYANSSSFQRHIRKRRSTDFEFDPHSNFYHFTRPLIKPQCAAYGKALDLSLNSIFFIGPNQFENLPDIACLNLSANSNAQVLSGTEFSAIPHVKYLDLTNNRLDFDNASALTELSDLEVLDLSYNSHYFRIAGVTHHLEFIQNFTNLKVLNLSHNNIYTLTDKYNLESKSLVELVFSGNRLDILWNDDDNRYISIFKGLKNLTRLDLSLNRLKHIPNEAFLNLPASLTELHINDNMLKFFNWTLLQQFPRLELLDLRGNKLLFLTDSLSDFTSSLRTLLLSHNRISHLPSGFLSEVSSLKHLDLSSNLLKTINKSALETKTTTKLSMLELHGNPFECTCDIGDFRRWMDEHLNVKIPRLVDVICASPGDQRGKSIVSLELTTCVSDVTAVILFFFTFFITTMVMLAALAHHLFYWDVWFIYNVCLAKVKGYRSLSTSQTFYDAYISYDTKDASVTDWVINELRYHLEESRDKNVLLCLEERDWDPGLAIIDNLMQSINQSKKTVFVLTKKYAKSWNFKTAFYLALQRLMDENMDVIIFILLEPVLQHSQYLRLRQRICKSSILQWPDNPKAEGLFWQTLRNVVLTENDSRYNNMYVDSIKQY
Procedure, shortened: as §1

[3] = target: T3, human TLR9 (Homo sapiens, UniProt Q9NR96); test: TLR9 inhibition reporter assay (HEK-Blue cells, SEAP reporter, ODN2006 stimulation); details: HEK-Blue cells overexpressing human TLR9, SEAP reporter, ODN2006 5 nM
T3 construct: host or cells: HEK-Blue cells
T3 sequence (Q9NR96 26-1032): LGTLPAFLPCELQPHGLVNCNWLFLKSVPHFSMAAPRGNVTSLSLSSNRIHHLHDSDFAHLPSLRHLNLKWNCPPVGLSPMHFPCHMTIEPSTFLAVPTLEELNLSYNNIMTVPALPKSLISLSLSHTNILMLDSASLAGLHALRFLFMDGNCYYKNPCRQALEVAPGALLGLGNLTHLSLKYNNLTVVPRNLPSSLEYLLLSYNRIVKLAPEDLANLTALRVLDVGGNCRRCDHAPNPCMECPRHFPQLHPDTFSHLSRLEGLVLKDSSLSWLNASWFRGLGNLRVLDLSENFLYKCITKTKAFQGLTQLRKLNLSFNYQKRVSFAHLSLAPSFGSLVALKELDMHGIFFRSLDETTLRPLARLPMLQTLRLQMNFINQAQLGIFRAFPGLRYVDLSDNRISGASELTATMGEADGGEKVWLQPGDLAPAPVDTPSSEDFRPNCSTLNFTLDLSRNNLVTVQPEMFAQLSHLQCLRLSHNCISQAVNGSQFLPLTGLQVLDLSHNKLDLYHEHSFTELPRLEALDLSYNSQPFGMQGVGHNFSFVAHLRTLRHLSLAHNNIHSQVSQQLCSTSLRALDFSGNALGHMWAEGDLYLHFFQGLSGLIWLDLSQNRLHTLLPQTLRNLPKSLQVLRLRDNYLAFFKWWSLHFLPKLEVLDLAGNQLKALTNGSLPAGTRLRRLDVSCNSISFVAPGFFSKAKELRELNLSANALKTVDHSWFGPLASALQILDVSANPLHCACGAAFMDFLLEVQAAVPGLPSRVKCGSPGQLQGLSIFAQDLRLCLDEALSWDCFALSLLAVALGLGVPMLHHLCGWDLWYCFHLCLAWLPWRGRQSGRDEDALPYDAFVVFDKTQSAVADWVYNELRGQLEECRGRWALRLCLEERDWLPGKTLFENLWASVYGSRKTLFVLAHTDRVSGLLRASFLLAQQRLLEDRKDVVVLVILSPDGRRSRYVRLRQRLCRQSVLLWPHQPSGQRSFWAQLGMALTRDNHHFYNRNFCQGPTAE
Procedure, shortened: as §1

| Structure (SMILES) | IC50 [1] [nM] | IC50 [2] [nM] | IC50 [3] [nM] |
| --- | --- | --- | --- |
| CNCC(=O)N1CCN(c2nc3c(C(C)C)c(-c4cn5ncnc5c(C)c4C)[nH]c3s2)[C@H](C)C1 [Example 326, (R)-1-(4-(5-(7,8-dimethyl-[1,2,4]triazolo[1,5-a]pyridin-6-yl)-6-isopropyl-4H-pyrrolo[3,2-d]thiazol-2-yl)-3-methylpiperazin-1-yl)-2-(methylamino)ethan-1-one] | 5.42 | 7.97 | 17600 |
| Cc1c(-c2[nH]c3sc(N4C[C@@H](C)N(C5CCOCC5)C[C@@H]4C)nc3c2C(C)C)cn2ncnc2c1C [Example 329, 2-((2S,5R)-2,5-dimethyl-4-(tetrahydro-2H-pyran-4-yl)piperazin-1-yl)-5-(7,8-dimethyl-[1,2,4]triazolo[1,5-a]pyridin-6-yl)-6-isopropyl-4H-pyrrolo[3,2-d]thiazole] | 414 | 60.3 | 14700 |
| Cc1c(-c2[nH]c3sc(N4C[C@@H](C)N(CC5CC5)C[C@@H]4C)nc3c2C(C)C)cn2ncnc2c1C [Example 332, 2-((2S,5R)-4-(cyclopropylmethyl)-2,5-dimethylpiperazin-1-yl)-5-(7,8-dimethyl-[1,2,4]triazolo[1,5-a]pyridin-6-yl)-6-isopropyl-4H-pyrrolo[3,2-d]thiazole] | 16.9 | 1.91 | 10200 |
| Cc1c(-c2[nH]c3sc(N4C[C@@H](C)N(C5CCC5)C[C@@H]4C)nc3c2C(C)C)cn2ncnc2c1C [Example 333, 2-((2S,5R)-4-cyclobutyl-2,5-dimethylpiperazin-1-yl)-5-(7,8-dimethyl-[1,2,4]triazolo[1,5-a]pyridin-6-yl)-6-isopropyl-4H-pyrrolo[3,2-d]thiazole] | 34.9 | 2.19 | 37400 |

Now from value to compound:

| IC50 [1] [nM] | IC50 [2] [nM] | IC50 [3] [nM] | Structure (SMILES) |
| --- | --- | --- | --- |
| 7.5 | 7.11 | 15800 | Cc1c(-c2[nH]c3sc(N4CCN(C(=O)CN(C)C)C[C@H]4C)nc3c2C(C)C)cn2ncnc2c1C [Example 327, (R)-1-(4-(5-(7,8-dimethyl-[1,2,4]triazolo[1,5-a]pyridin-6-yl)-6-isopropyl-4H-pyrrolo[3,2-d]thiazol-2-yl)-3-methylpiperazin-1-yl)-2-(dimethylamino)ethan-1-one] |
| 12.9 | 12.8 | 18800 | Cc1c(-c2[nH]c3sc(N4C[C@@H](C)N(C5COC5)C[C@@H]4C)nc3c2C(C)C)cn2ncnc2c1C [Example 328, 2-((2S,5R)-2,5-dimethyl-4-(oxetan-3-yl)piperazin-1-yl)-5-(7,8-dimethyl-[1,2,4]triazolo[1,5-a]pyridin-6-yl)-6-isopropyl-4H-pyrrolo[3,2-d]thiazole] |
| 8.34 | 1.5 | 11400 | Cc1c(-c2[nH]c3sc(N4C[C@@H](C)N(C(C)C)C[C@@H]4C)nc3c2C(C)C)cn2ncnc2c1C [Example 330, 5-(7,8-dimethyl-[1,2,4]triazolo[1,5-a]pyridin-6-yl)-6-isopropyl-2-((2S,5R)-4-isopropyl-2,5-dimethylpiperazin-1-yl)-4H-pyrrolo[3,2-d] thiazole] |
| 4.29 | 0.49 | 6310 | CCN1C[C@H](C)N(c2nc3c(C(C)C)c(-c4cn5ncnc5c(C)c4C)[nH]c3s2)C[C@H]1C [Example 331, 5-(7,8-dimethyl-[1,2,4]triazolo[1,5-a]pyridin-6-yl)-2-((2S,5R)-4-ethyl-2,5-dimethylpiperazin-1-yl)-6-isopropyl-4H-pyrrolo[3,2-d]thiazole] |
| 13.6 | 3.19 | 4830 | Cc1c(-c2[nH]c3sc(N4C[C@@H](C)N(C(C)C)C[C@@H]4C)nc3c2C(C)C)cn2ncnc2c1C [Example 334, 5-(7,8-dimethyl-[1,2,4]triazolo[1,5-a]pyridin-6-yl)-6-isopropyl-2-((2S,5R)-4-isopropyl-2,5-dimethylpiperazin-1-yl)-4H-pyrrolo[3,2-d]thiazole] |
